Values quoted from earlier work as cited in patent publication US10702606B2, “Peptide composition” (MENICON CO., LTD., priority 2015, dated 2020).
Like-named read-outs stand apart in the source and are kept apart here.

NCCN [Ethylenediamine, ethylenediamine]
pKa (25° C., only a pKa of 3.5 or more and less than 7.5 is described): 7.1 | pKa (buffering agent, temperature not given): 7.1
